Each structure is given as a SMILES string. Structures can show the parent of a compound that is named as a salt.

The target in series [1] is T1, PDEV (Homo sapiens, UniProt O76074).
T1 construct: PDEV was isolated from rabbit and human tissues according to the protocol described by Boolell et al; from tissue; host or cells: human tissue, homogenate supernatant fractionated on Mono Q
Nature of the series: In vitro determination of Ki for phosphodiesterase inhibitors. Type of series: biochemical. As to conditions: human tissue; given as 'Ki ='. As to the method:
The assays were adapted to a 96-well format. Phosphodiesterase was assayed in 5 mM MgCl2, 15 mM Tris HCl (pH 7.4), 0.5 mg/ml bovine serum albumin, 30 nM ^3H-cGMP and test compound at various concentrations. The amount of enzyme used for each reaction was such that less than 15% of the initial substrate was converted during the assay period. For all measurements, the test compound was dissolved and diluted in 100% DMSO (2% DMSO in assay). The total volume of the assay was 100 μl. The reaction mixture was incubated at 30° C. for 90 minutes. The reaction was stopped by boiling for 1 minute and then immediately cooled by transfer to an ice bath. To each well was then added 25 μl 1 mg/ml snake venom (Ophiophagus hannah) and the reaction mixture incubating at 30° C. for 10 minute. The reaction was stopped by the addition of 1 ml Bio-Rad AG1-X2 resin slurry (1:3). An aliquot of 200 μl was taken and counted by liquid scintillation.
(§1) The % inhibition of the maximum substrate conversion (by the enzyme in the absence of inhibitor) was calculated for each test compound concentration. Using GraphPad Prism's nonlinear regression analysis (sigmoidal dose response), the % inhibition vs log of the test compound concentration was plotted to determine the IC50. Under conditions where substrate concentration <<Km of the enzyme (Km=substrate concentration at which half of the maximal velocity of the enzyme is achieved), Ki is equivalent to the IC50 value.
(§2) Unless otherwise noted, PDEV inhibitory activities were measured using human tissue. The abbreviation “stereo” refers to the stereogenic configuration, the abbreviation “Rac” shall denote a racemic mixture.

The target of series [2] is T1, PDEV. Nature of the series: PDE assay: inhibition of PDEV isolated from human tissue. It counts as biochemical. As to conditions: for IC50: PDEV inhibitory activity. The protocol: (§3) Briefly, rabbit or human tissues were homogenized in an ice-cold buffer solution containing 20 mM HEPES (pH 7.2), 0.25M sucrose, 1 mM EDTA, and 1 mM phenylmethylsulphonyl fluoride (PMSF). The homogenates were centrifuged at 100,000 g for 60 minutes at 4° C. The supernatant was filtered through […] filter and loaded on a Pharmacia Mono Q anion exchange column (1 ml bed volume) that was equilibrated with 20 mM HEPES, 1 mM EDTA and 0.5 mM PMSF. After washing out unbound proteins, the enzymes were eluted with a linear gradient of 100-600 mM NaCl in the same buffer (35 to 50 ml total, depending on the tissue. Enzymes from the skeletal muscle, corpus cavernosum, retina, heart and platelet were eluted with 35, 40, 45, 50, and 50 ml respectively.) The column was run at a flow rate of 1 ml/min and 1 ml fractions were collected. The fractions comprising various PDE activities were pooled separately and used in later studies.
(§4) The assays were adapted to a 96-well format. The enzyme was assayed in 5 mM MgCl2, 15 mM Tris HCl (pH 7.4), 0.5 mg/ml bovine serum albumin, 1 μM cGMP or cAMP, 0.1 μCi [^3H]-cGMP or [^3H]-cAMP, and 2-10 μl of column elution. The total volume of the assay was 100 μl. The reaction mixture was incubated at 30° C. for 30 minutes. The reaction was stopped by boiling for 1 minute and then cooled down on ice. The resulting [^3H]5′-mononucleotides were further converted to uncharged [^3H]-nucleosides by adding 25 μl 1 mg/ml snake venom (Ophiophagus hannah) and incubating at 30° C. for 10 minute. The reaction was stopped by the addition of 1 ml Bio-Rad AG1-X2 resin slurry (1:3). All the charged nucleotides were bound by the resin and only uncharged [^3H]-nucleosides remained in the supernatant after centrifuging. An aliquot of 200 μl was taken and counted by liquid scintillation. PDE activity was expressed as pmol cyclic nucleotide hydrolyzed/min/ml of enzyme preparation.
(§5) Inhibitor studies were carried out in assay buffer with a final concentration of 10% DMSO.
as §1, §2

Series [3] is described as follows: In vivo testing for efficacy, procedure of Carter et al. The protocol:
Following the procedure disclosed by Carter et al., (Carter, A. J., Ballard, S. A., and Naylor, A. M.) in The Journal of Urology 1998, 160, 242-246, the compounds as listed in Table 7 were tested for in vivo efficacy, with results as tabulated below.

For series [4], the target named is PDEV (Oryctolagus cuniculus, UniProt G1SX67). Nature of the series: PDE assay: inhibition of PDEV isolated from rabbit tissue. Type of series: biochemical. As to conditions: PDEV inhibitory activity, rabbit tissue (footnote a). As to the method:
as §3, §4, §5, §1, §2

For the molecule `O=c1c2c([nH]c3ccccc13)C(c1ccc3c(c1)CCO3)N(c1ccccn1)C2` (centres unmarked) [Compound 136, 3-(2,3-Dihydro-benzofuran-5-yl)-2-pyridin-2-yl-1,2,3,4-tetrahydro-pyrrolo[3,4-b]quinolin-9-one], on PDEV [1], the inhibition constant Ki (as a rule, the dissociation constant of the complex between target and ligand, obtained from inhibition or displacement) was found to be 0.18 nM.
Still for that read-out and setting: in the case of `Oc1c2c(nc3ccccc13)C(c1ccc3occc3c1)N(c1ncc(-c3ccccn3)cn1)C2` (racemic) [Compound 126, 3-Benzofuran-5-yl-2-(5-pyridin-2-yl-pyrimidin-2-yl)-1,2,3,4-tetrahydro-pyrrolo[3,4-b]quinolin-9-one] it was 0.138 nM.
`COc1ccc(-c2cnc(N3Cc4c([nH]c5ccccc5c4=O)[C@H]3c3ccc4c(c3)OCO4)nc2)cc1OC` [Compound 36, (R)-1,2,3,4-Tetrahydro-2-[5-(3,4-dimethoxyphenyl)-pyrimidin-2-yl]-3-(3,4-methylenedioxyphenyl)-9H-pyrrolo-[3,4-b]quinolin-9-one]: on PDEV [2], half-maximal inhibition (IC50) was put at 0.075 nM. Also, in series [3], the Efficacy entry is given as “Active”.
As to `O=c1c2c([nH]c3ccccc13)C(c1ccc3c(c1)OCO3)N(C(=S)n1ccnc1)C2` (racemic) [Compound 18, 1,2,3,4-Tetrahydro-2-(imidazol-1-yl)thiocarbonyl-3-(3,4-methylenedioxyphenyl)-9H-pyrrolo-[3,4-b]quinolin-9-one], the melting point (in general, the temperature of the solid-liquid transition) was 211 to 215 °C (dec.). Moreover, the inhibition (commonly the drop in the measured response relative to a control, in per cent) at 10 µM against PDEV [2] (10 μM test compound) is 54%.
For the molecule `O=C(OCc1ccncc1)N1Cc2c([nH]c3ccccc3c2=O)C1c1ccc2c(c1)CCO2` (racemic) [Compound 53, 1,2,3,4-Tetrahydro-2-[(4-pyridinyl)methyloxycarbonyl]-3-(2,3-dihydrobenzofuran-5-yl)-9H-pyrrolo-[3,4-b]quinolin-9-one], the IC50 – broadly, the midpoint of a concentration-inhibition curve – on PDEV [4] was 5.34 nM.
Still for that read-out and setting: in the case of `COC(=O)c1ccc(/C=C/C(=O)N2Cc3c(n(C)c4ccccc4c3=O)C2c2ccc3c(c2)OCO3)cc1` (racemic) [Compound 63, (E)-4-[3-Oxo-3-[1,2,3,4-tetrahydro-3-(3,4-methylenedioxyphenyl)-4-methyl-9H-pyrrolo-[3,4-b]quinolin-9-one-2-yl]-1-propenyl]benzoic acid, methyl ester] it was 511 nM.
`O=c1c2c([nH]c3ccccc13)[C@@H](c1ccc3c(c1)CCO3)N(c1ncc(-c3ccccn3)cn1)C2` [Compound 65, (R)-1,2,3,4-Tetrahydro-2-[5-(2-pyridinyl)-pyrimidin-2-yl]-3-(2,3-dihydrobenzofuranyl)-9H-pyrrolo-[3,4-b]quinolin-9-one]: the half-maximal inhibitory concentration (IC50) at PDEV [2] was found to be 0.23 nM. In series [3], the Efficacy result was “Active”.
In turn, `O=C(OCc1ccccc1)N1Cc2c(nc3ccccc3c2O)C1c1ccc2c(c1)OCO2` (racemic) [Compound 27, 1,2,3,4-Tetrahydro-2-(benzyloxycarbonyl)-3-(3,4-methylenedioxyphenyl)-9H-pyrrolo-[3,4-b]quinolin-9-one] gave an IC50 on PDEV [4] of 3.4 nM.
`O=c1c2c([nH]c3ccccc13)C(c1ccc3c(c1)CCO3)N(c1ncc(-c3cccc[n+]3[O-])cn1)C2` (centres unmarked) [Compound 125, 3-(2,3-Dihydro-benzofuran-5-yl)-2-[5-(1-oxy-pyridin-2-yl)-pyrimidin-2-yl]-1,2,3,4-tetrahydro-pyrrolo[3,4-b]quinolin-9-one] yielded an inhibition constant (Ki) on PDEV [1] of 0.144 nM. This lies in the sub-nanomolar range.
`COc1ccc(-c2cnc(N3Cc4c([nH]c5ccccc5c4=O)[C@@H]3c3ccc4c(c3)OCO4)nc2)cc1OC` [Compound 35, (S)-1,2,3,4-Tetrahydro-2-[5-(3,4-dimethoxyphenyl)-pyrimidin-2-yl]-3-(3,4-methylenedioxyphenyl)-9H-pyrrolo-[3,4-b]quinolin-9-one] registered a half-inhibitory concentration (IC50) at PDEV [4] of 1.42 nM.
On PDEV [1], `Oc1c2c(nc3ccccc13)C(c1ccc3c(c1)CCO3)N(c1ccc(-c3ccccn3)cn1)C2` (racemic) [Compound 134, 2-[2,3′]Bipyridinyl-6′-yl-3-(2,3-dihydro-benzofuran-5-yl)-1,2,3,4-tetrahydro-pyrrolo[3,4-b]quinolin-9-one] displayed a Ki of 1.1 nM.
In turn, `Cl.O=C(OCc1ccncc1)N1Cc2c([nH]c3ccccc3c2=O)C1c1ccc2c(c1)OCO2` (racemic) [Compound 37, 1,2,3,4-Tetrahydro-2-[(4-pyridinyl)methyloxycarbonyl]-3-(3,4-methylenedioxyphenyl)-9H-pyrrolo-[3,4-b]quinolin-9-one, hydrochloride salt] had an IC50 on PDEV [2] of 5.72 nM. For the same molecule, the Efficacy result in series [3] was “Active”.
At PDEV [1], `Cc1ncc(-c2cnc(N3Cc4c(nc5ccccc5c4O)C3c3ccc4c(c3)CCO4)nc2)n1Cc1ccccc1` (racemic) [Compound 127, 2-[5-(3-Benzyl-2-methyl-3H-imidazol-4-yl)-pyrimidin-2-yl]-3-(2,3-dihydro-benzofuran-5-yl)-1,2,3,4-tetrahydro-pyrrolo[3,4-b]quinolin-9-one] came in with a Ki of 0.14 nM.
As for `O=C(c1cc2ccc(OCCN3CCOCC3)cc2o1)N1Cc2c([nH]c3ccccc3c2=O)C1c1ccc2c(c1)OCO2` (racemic) [Compound 49, hydrochloride salt], the half-maximal inhibitory concentration (IC50) on PDEV [4] came to 1.13 nM.
As for `O=c1c2c([nH]c3ccccc13)[C@@H](c1ccc3c(c1)OCO3)N(c1ccc(-c3cccc(C(F)(F)F)c3)o1)C2` [Compound 50, (R)-1,2,3,4-Tetrahydro-3-(3,4-methylenedioxyphenyl)-2-[5-(3-trifluoromethylphenyl)furo-2-yl]-9H-pyrrolo-[3,4-b]quinolin-9-one], the IC50 at PDEV [4] was 0.61 nM.
As for `COc1ccc(-c2cnc(N3Cc4c([nH]c5ccccc5c4=O)[C@H]3c3ccc4c(c3)CCO4)nc2)cc1` [Compound 66, (R)-1,2,3,4-Tetrahydro-2-[5-(4-methoxyphenyl)-pyrimidin-2-yl]-3-(2,4-dihydrobenzofuranyl)-9H-pyrrolo-[3,4-b]quinolin-9-one], at PDEV [2], the half-inhibitory concentration (IC50) worked out at 0.19 nM. Besides, the Efficacy entry in series [3] is “Active”.
In turn, `COc1ccc(-c2cnc(N3Cc4c([nH]c5ccccc5c4=O)C3c3ccc4c(c3)OCO4)nc2)cc1` (racemic) [Compound 2, 1,2,3,4-Tetrahydro-2-[5-(4-methoxyphenyl)-pyrimidin-2-yl]-3-(3,4-methylene-dioxyphenyl)-9H-pyrrolo-[3,4-b]quinolin-9-one] came in with a melting point of 325 to 327 °C. The 50% inhibitory concentration (IC50) against PDEV [2] turned out to be 0.191 nM.
On to `O=c1c2c([nH]c3ccccc13)C(c1ccc3c(c1)CCO3)N(c1ccccn1)C2` (racemic) [Compound 129, 3-(2,3-Dihydro-benzofuran-5-yl)-2-pyridin-2-yl-1,2,3,4-tetrahydro-pyrrolo[3,4-b]quinolin-9-one], for which the Ki on PDEV [1] amounted to 0.65 nM.
Still for that read-out and setting: with `Oc1c2c(nc3ccccc13)C(c1ccc3c(c1)OCO3)N(c1ccc(-n3ccnc3)cc1)C2` (racemic) [Compound 133, 3-Benzo[1,3]dioxol-5-yl-2-(4-imidazol-1-yl-phenyl)-1,2,3,4-tetrahydro-pyrrolo[3,4-b]quinolin-9-one] the figure was 1.75 nM; with `Cc1ncc(-c2cnc(N3Cc4c([nH]c5ccccc5c4=O)C3c3ccc4c(c3)CCO4)nc2)n1C` (stereo not drawn) [Compound 128, 3-(2,3-Dihydro-benzofuran-5-yl)-2-[5-(2,3-dimethyl-3H-imidazol-4-yl)-pyrimidin-2-yl]-1,2,3,4-tetrahydro-pyrrolo[3,4-β]quinolin-9-one], 0.3 nM.

The values are drawn from patent US6818646B2 (priority 2000, dated 2004).
